Reference: PMC5355295, “A new semisynthetic cardenolide analog 3β-[2-(1-amantadine)- 1-on-ethylamine]-digitoxigenin (AMANTADIG) affects G2/M cell cycle arrest and miRNA expression profiles and enhances proapoptotic survivin-2B expression in renal cell carcinoma cell lines” (Oncotarget, 2017)

Target: T1, Na+/K+-ATPase α1,2,3 subunit
T1 construct: gene ATP1A1; Na+/K+-ATPase α1,2,3 subunit of porcine cortex (Sigma)
Experiment: ATPase activity, malachite green Pi release, […] min pre-incubation
Assay type: biochemical, Sus scrofa

CO[C@H]1[C@@H](O)C[C@H](O[C@H]2[C@@H](O)C[C@H](O[C@H]3[C@@H](O)C[C@H](O[C@H]4CC[C@@]5(C)[C@H](CC[C@@H]6[C@@H]5C[C@@H](O)[C@]5(C)[C@@H](C7=CC(=O)OC7)CC[C@]65O)C4)O[C@@H]3C)O[C@@H]2C)O[C@@H]1C [β-methyldigoxin]
IC50: 16.7 µM
